From patent publication US9808466B2, “Macrocyclic compounds as protein kinase inhibitors” (Fundación Centro Nacional de Investigaciones Oncologicas …, priority 2011, dated 2017)
Where two headings read alike, the source gives them in different places.

Key:
PI3K (p110α/p85α) = biological target: T1, PI3K (p110α/p85α) (Homo sapiens, UniProt P42336); assay: PI3K activity assay (ADP Hunter Plus); assay type: biochemical
T1 construct: purchased Carna Biosciences 07CBS-0402A
Procedure: The kinase activity was measured by using the commercial ADP Hunter™ Plus assay available from DiscoveRx (#33-016), which is a homogeneous assay to measure the accumulation of ADP, a universal product of kinase activity. […] Reaction was carried out for 1 hour at 25° C. Reagent A and B were sequentially added to the wells and plates were incubated for 30 min at 37° C. Fluorescence counts were read in a Victor instrument (Perkin Elmer) with the recommended settings (544 and 580 nm as excitation and emission wavelengths, respectively). Values were normalized against the control activity included for each enzyme (i.e., 100% PI3 kinase activity, without compound). These values were plotted against the inhibitor concentration and were fit to a sigmoid dose-response curve by using the Graphad software.

mTOR = biological target: T2, mTOR (Homo sapiens, UniProt P42345); assay: mTOR assay (LanthaScreen kinase activity assay); assay type: biochemical
T2 construct: purchased Invitrogen PV4754
T2 sequence (P42345 1360-2549 limits assumed): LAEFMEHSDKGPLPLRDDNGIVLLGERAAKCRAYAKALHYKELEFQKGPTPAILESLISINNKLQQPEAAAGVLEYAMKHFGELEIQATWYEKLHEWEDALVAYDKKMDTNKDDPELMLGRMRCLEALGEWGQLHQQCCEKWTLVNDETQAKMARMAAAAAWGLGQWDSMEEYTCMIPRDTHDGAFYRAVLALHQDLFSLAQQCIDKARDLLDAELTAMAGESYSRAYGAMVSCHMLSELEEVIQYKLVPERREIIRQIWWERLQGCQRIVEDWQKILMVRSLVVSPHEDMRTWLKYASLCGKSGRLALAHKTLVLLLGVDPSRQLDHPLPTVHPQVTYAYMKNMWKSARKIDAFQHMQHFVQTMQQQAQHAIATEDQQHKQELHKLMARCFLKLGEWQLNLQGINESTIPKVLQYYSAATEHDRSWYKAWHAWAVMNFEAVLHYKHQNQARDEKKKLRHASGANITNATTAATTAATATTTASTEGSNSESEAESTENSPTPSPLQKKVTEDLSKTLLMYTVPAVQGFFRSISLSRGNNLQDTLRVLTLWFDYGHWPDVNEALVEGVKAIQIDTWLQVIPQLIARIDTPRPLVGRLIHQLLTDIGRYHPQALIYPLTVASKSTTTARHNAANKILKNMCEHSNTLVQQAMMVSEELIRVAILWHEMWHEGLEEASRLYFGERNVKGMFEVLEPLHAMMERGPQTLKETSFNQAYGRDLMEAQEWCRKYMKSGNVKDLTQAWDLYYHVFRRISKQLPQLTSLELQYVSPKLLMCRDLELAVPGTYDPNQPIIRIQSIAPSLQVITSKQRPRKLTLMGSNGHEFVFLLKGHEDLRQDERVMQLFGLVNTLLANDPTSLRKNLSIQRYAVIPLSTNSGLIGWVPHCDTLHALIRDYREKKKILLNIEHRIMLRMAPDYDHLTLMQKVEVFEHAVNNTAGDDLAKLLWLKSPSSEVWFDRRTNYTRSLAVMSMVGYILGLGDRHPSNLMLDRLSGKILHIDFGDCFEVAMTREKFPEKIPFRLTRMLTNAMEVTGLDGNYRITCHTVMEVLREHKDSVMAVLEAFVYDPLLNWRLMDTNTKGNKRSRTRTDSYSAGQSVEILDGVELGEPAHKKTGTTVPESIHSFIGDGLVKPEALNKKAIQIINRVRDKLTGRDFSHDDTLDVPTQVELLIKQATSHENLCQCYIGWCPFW
Procedure: The enzymatic mTOR activity was measured using a LanthaScreen™ kinase activity assay (Invitrogen). The enzyme was purchased from Invitrogen (PV4754), as well as the GFP-labeled substrate (4EBP1-GFP; PV4759) and the Tb-anti-p4EBP1(pThr46) antibody (PV4757). The assay was performed in 50 mM HEPES buffer, pH 7.5, containing 1.5 mM MnCl2, 10 mM MgCl2, 1 mM EGTA, 2.5 mM DTT and 0.01% Tween-20. The concentration of the assay components were the following: 0.24 nM mTOR kinase, 400 nM 4EBP1-GFP, […] and serial dilutions of the compound (inhibitor) to be evaluated. After 1 h incubation at room temperature, 20 mM EDTA was used to stop the reaction and terbium-labeled antibody (4 nM) added to detect phosphorylated product. The antibody associates with the phosphorylated product resulting in an increased TR-FRET value. The TR-FRET value (a dimensionless number) was calculated as the ratio of the acceptor signal (GFP, emission at 520 nm) to the donor signal (terbium, emission at 495 nm). Values were plotted against the inhibitor concentration and fitted to a sigmoid dose-response curve using GraphPad software.

PIM-1 = biological target: T3, PIM-1 (Homo sapiens, UniProt P11309); assay: PIM-1 biochemical assay (ADP Hunter)
T3 construct: histidine tag (C); made in house
T3 sequence (P11309 whole entry): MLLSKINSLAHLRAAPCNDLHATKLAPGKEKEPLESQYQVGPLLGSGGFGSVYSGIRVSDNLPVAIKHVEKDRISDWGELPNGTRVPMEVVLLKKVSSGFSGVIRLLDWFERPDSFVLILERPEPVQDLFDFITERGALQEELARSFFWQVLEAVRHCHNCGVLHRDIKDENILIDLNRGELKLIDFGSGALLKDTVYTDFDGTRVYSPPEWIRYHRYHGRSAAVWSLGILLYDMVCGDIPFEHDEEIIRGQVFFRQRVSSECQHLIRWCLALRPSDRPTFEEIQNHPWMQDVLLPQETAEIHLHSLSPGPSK
Excerpt: The biochemical assay to measure PIM-1 activity relies on the ADP Hunter assay kit (DiscoveRx Corp., Cat. #90-0077), that determines the amount of ADP as direct product of the kinase enzyme activity.
The enzyme has been expressed and purified in-house as a recombinant human protein with a C-terminal histidine tag. The protein is active and stable.
Assay conditions were as indicated by the kit manufacturers with the following adaptations for the kinase activity step: • Kinase assay buffer and assay volume stay as recommended (15 mM HEPES, pH 7.4, 20 mM NaCl, 1 mM EGTA, 0.02% Tween 20, 10 mM MgCl2 and 0.1 mg/ml bovine γ-globulins/75 μl assay volume) • Incubation time and temperature: 60 min at 30° C. • PIM-1 concentration: 50 pg/μl • ATP concentration: 100 μM • PIM-1 substrate peptide: PIMtide ([…]) (SEQIDNO. 1) • Peptide concentration: 60 μM • Positive control for kinase activity inhibition: 1-10 μM Staurosporine • DMSO concentration have to stay below 2% during the kinase reaction
Assays were performed in either 96 or 384-well plates. The final outcome of the coupled reactions provided by the kit is the release of the fluorescent product Resorufin and has been measured with a multilabel HTS counter VICTOR V (PerkinElmer) using an excitation filter at 544 nm and an emission filter at 580 nm.

[1] = read-out: PI3K alpha activity, IC50 (semi-quantitative class)
[2] = read-out: PI3K alpha actual IC50 (in parentheses)
[3] = read-out: mTOR activity, IC50 (semi-quantitative class)
[4] = PIM1, read-out: PIM-1 activity, IC50 (semi-quantitative class)
[5] = PIM1, read-out: PIM-1 actual IC50 (in parentheses)
[6] = read-out: PI3K alpha IC50 (in parentheses)
[7] = read-out: PI3K alpha activity (semi-quantitative IC50)
[8] = read-out: mTOR activity (semi-quantitative IC50)
[9] = read-out: PIM-1 IC50 (in parentheses)
[10] = read-out: PIM-1 activity (semi-quantitative IC50)

T1 sequence (P42336 whole entry): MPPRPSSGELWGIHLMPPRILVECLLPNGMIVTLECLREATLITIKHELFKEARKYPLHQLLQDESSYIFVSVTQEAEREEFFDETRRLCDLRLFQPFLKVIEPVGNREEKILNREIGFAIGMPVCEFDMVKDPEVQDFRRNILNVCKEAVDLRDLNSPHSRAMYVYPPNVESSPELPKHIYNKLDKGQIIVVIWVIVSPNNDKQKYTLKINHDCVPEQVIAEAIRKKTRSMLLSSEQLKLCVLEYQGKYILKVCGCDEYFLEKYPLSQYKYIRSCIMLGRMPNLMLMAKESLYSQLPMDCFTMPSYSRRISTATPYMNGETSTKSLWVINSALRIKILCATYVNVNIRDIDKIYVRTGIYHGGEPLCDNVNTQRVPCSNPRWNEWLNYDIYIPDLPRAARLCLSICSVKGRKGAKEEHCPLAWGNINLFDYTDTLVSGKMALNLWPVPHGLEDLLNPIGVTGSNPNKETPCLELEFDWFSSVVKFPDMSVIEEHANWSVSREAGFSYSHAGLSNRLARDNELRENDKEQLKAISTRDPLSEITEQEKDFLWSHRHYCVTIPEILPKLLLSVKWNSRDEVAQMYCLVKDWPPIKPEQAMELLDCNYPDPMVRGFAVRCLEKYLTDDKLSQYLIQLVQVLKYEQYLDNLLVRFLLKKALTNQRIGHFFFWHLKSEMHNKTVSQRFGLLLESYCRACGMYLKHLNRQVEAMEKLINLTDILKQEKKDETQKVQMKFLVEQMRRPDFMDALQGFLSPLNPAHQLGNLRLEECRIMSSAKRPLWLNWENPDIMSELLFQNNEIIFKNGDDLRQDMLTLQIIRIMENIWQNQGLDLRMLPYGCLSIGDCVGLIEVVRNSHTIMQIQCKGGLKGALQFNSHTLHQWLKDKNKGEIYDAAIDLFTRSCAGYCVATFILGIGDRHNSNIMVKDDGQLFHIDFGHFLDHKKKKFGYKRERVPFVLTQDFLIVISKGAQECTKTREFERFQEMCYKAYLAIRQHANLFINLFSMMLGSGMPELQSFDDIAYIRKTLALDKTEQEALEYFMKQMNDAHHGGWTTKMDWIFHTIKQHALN
T1 sequence (P27986 whole entry partner): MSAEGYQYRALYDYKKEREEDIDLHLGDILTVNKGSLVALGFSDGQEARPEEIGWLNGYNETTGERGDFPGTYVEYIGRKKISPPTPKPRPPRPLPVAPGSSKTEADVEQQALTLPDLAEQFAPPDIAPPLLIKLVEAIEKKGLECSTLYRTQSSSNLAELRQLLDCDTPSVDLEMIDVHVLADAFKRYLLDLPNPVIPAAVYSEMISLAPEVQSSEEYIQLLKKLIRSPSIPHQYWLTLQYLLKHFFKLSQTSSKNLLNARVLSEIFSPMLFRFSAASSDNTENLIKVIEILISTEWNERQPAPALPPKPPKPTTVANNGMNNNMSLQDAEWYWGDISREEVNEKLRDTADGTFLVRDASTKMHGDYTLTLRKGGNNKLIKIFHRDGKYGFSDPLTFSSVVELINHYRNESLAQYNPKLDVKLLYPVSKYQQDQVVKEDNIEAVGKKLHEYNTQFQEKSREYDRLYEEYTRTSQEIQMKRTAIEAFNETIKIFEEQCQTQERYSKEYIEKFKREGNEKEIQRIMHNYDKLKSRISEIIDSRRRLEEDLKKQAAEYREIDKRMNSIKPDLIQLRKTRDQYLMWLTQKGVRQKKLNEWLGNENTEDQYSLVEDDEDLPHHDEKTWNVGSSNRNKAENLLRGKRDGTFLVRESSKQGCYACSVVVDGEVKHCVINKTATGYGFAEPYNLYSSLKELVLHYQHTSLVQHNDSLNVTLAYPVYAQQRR

SMILES | IC50 (PI3K (p110α/p85α); [1]) | IC50 (PI3K (p110α/p85α); [2]) | IC50 (mTOR; [3]) | IC50 (PIM-1; [4]) | IC50 (PIM-1; [5]) | IC50 (PI3K (p110α/p85α); [6]) | IC50 (PI3K (p110α/p85α); [7]) | IC50 (mTOR; read-out: mTOR IC50 (in parentheses)) | IC50 (mTOR; [8]) | IC50 (PIM-1; [9]) | IC50 (PIM-1; [10])
COc1ncc2cc1NS(=O)(=O)c1cccc(c1)C(=O)NCc1cncc(c1)-c1ncnc3c1SC2=C3C [compound 56] | < 100 nM | 13 nM | 100 to 1000 nM | < 100 nM | 56 nM |  |  |  |  |  | 
COc1ncc2cc1NS(=O)(=O)c1cc(c(F)cc1F)C(=O)NCc1cccc(c1)-c1ccnc3ccc-2cc13 [compound 29] | < 100 nM | 6 nM | 100 to 1000 nM | > 1000 nM |  |  |  |  |  |  | 
O=C1NCc2cncc(c2)-c2cnc3sc(nn23)-c2cnc(O)c(c2)NS(=O)(=O)c2cccc1c2 [compound 9] | 100 to 1000 nM |  | > 1000 nM | 100 to 1000 nM |  |  |  |  |  |  | 
O=C1NCc2cncc(c2)-c2ccnc3ccc(cc23)-c2cncc(c2)NS(=O)(=O)c2cccc1c2 [compound 49] | < 100 nM | 68 nM | 100 to 1000 nM | > 1000 nM |  |  |  |  |  |  | 
COc1ncc2cc1NS(=O)(=O)c1cccc(c1)C(=O)NCC1=CC=C(O1)c1ncnc3c1SC2=C3 [compound 69] | 100 to 1000 nM |  | > 1000 nM | 100 to 1000 nM |  |  |  |  |  |  | 
COc1ncc2cc1NS(=O)(=O)c1ccc(Cl)c(c1)C(=O)NCC1=CC=C(S1)c1ccnc3c1SC2=C3C [compound 102] |  |  |  |  |  | 0.1 nM | < 100 nM | 28 nM | < 100 nM | 9.5 nM | < 100 nM
COc1ncc2cc1NS(=O)(=O)c1cccc(c1)C(=O)NC[C@H]1CCCN(C1)c1ncnc3c1SC2=C3 [compound 83] | > 1000 nM |  | > 1000 nM | 100 to 1000 nM |  |  |  |  |  |  | 
COc1ncc2cc1NS(=O)(=O)c1cccc(c1)C(=O)NCCn1cc(cn1)-c1ncnc3c1SC2=C3C [compound 57] | < 100 nM | 0.8 nM | 100 to 1000 nM | 100 to 1000 nM |  |  |  |  |  |  | 
COc1ncc2cc1NS(=O)(=O)c1cccc(c1)C(=O)NC[C@@H]1CN(CCO1)c1ncnc3c1SC2=C3C [compound 91] |  |  |  |  |  | 10 nM | < 100 nM |  | 100 to 1000 nM | 47 nM | < 100 nM
COc1ncc2cc1NS(=O)(=O)c1ccc(F)c(c1)C(=O)NCc1cncc(c1)-c1ncnc3c1SC2=C3 [compound 48] | < 100 nM | 48 nM | > 1000 nM | < 100 nM | 52 nM |  |  |  |  |  | 
COc1ncc2cc1NS(=O)(=O)c1cccc(c1)C(=O)NCc1cncc(c1)-c1nc(C(C)C)nc3c1SC2=C3 [compound 60] | > 1000 nM |  | > 1000 nM | > 1000 nM |  |  |  |  |  |  | 
COc1ncc2cc1NS(=O)(=O)c1cccc(c1)C(=O)NC[C@H]1CN(CCO1)c1ncnc3c1SC2=C3 [compound 64] | > 1000 nM |  | > 1000 nM | 100 to 1000 nM |  |  |  |  |  |  | 
COc1ncc2cc1NS(=O)(=O)c1cccc(c1)C(=O)NCCn1cc(cn1)-c1nc(C(C)C)nc3c1SC2=C3 [compound 61] | > 1000 nM |  | > 1000 nM | > 1000 nM |  |  |  |  |  |  | 
